≈ marks a conversion by molar mass, not a printed value. Where “and” joins values, the source holds several entries; their conditions need not be identical. Identical values can stand only once.
Tests used:
[1] = tested on: C. difficile ATCC BAA 1801; test: MIC, broth microdilution, initial screening; format: cell-based, Clostridioides difficile; details: for MIC: Clostridioides difficile, BAA1801, 48 h
[2] = tested on: Lactobacillus crispatus HM-371; test: MIC against normal gut microbiota; format: cell-based; details: HM371
[3] = tested on: Lactobacillus gasseri HM-400; test: MIC against normal gut microbiota; format: cell-based; details: HM400
[4] = tested on: C. difficile NR-32891 (P13); test: MIC, broth microdilution, clinical isolate; format: cell-based; details: Clostridioides difficile
[5] = tested on: C. difficile NR-32904 (P30); test: MIC, broth microdilution, clinical isolate; format: cell-based; details: Clostridioides difficile
[6] = tested on: Bacteroides fragilis HM-709; test: MIC against normal gut microbiota; format: cell-based; details: HM709
[7] = tested on: Lactobacillus crispatus HM-103; test: MIC against normal gut microbiota; format: cell-based; details: HM103
C. difficile ATCC 43255 [8] = test: MIC, broth microdilution, clinical isolate; format: cell-based; details: Clostridioides difficile, ATCC43255
[9] = tested on: Bacteroides fragilis HM-711; test: MIC against normal gut microbiota; format: cell-based; details: HM711
[10] = tested on: E. coli JW55031 (TolC Mutant); test: MIC, broth microdilution; format: cell-based; details: Escherichia coli
[11] = tested on: E. coli BW25113 (wild-type strain); test: MIC, broth microdilution; format: cell-based, Escherichia coli; details: for MIC: Escherichia coli, BW25113
C. difficile ATCC 43255 [12] = test: Frequency of spontaneous mutation; details: for isolation of resistant mutants: high inoculum
E. faecalis ATCC 51299 = test: MIC, broth microdilution; format: cell-based; details: Enterococcus faecalis, ATCC51299
[13] = tested on: C. difficile NR-13432 (isolate 6); test: MIC, broth microdilution, clinical isolate; format: cell-based; details: Clostridioides difficile
[14] = tested on: human colorectal cells (Caco-2); test: In vitro cytotoxicity, MTS assay; format: cell-based; details: 2 hours incubation with compound
Caco-2 bilayers = test: Caco-2 bidirectional permeability assay; format: in vitro ADME, human
Lactobacillus strains = test: MIC over Lactobacillus strains; format: cell-based, Lactobacillus spp; details: read-out: MIC against Lactobacillus strains
[15] = tested on: C. difficile NR-13435 (isolate 9); test: MIC, broth microdilution, clinical isolate; format: cell-based; details: Clostridioides difficile
E. faecium ATCC 700221 = test: MIC, broth microdilution; format: cell-based; details: Enterococcus faecium, ATCC700221
Bacteroides spp = test: MIC over Bacteroides species; format: cell-based; details: read-out: MIC against species of Bacteroides
VRE clinical isolates = test: MIC range over VRE clinical isolates; format: cell-based, vancomycin-resistant enterococci; details: Enterococcus, read-out: MICs ranging over VRE clinical isolates
[16] = tested on: C. difficile NR-32883 (P2); test: MIC, broth microdilution, clinical isolate; format: cell-based; details: Clostridioides difficile
[17] = tested on: C. difficile NR-32895 (P19); test: MIC, broth microdilution, clinical isolate; format: cell-based; details: Clostridioides difficile
[18] = cited from earlier work
[19] = tested on: C. difficile infection (CDI); details: cited from earlier work
[20] = 15 × MIC, inoculum ~10^9 CFU/mL
[21] = 20 × MIC, inoculum ~10^9 CFU/mL
[22] = C. difficile ATCC BAA 1801, anaerobic, 48 hours

Row | SMILES | MIC [2] [µg/mL] | MIC [3] | MIC [6] [µg/mL] | MIC [7] | MIC (C. difficile ATCC 43255 [8]) [µg/mL] | MIC [9] | MIC [10] | MIC [11] | MIC (E. faecalis ATCC 51299) [µg/mL] | MIC (E. faecium ATCC 700221) [µg/mL] | MIC [1, 22] [µg/mL] | further results
1 | Cc1ccc(-c2nnc(NC(=O)c3ccc(SC(F)(F)F)cc3)o2)cc1 [Compound 12, N-(5-(4-Methylphenyl)-1,3,4-oxadiazol-2-yl)-4-((trifluoromethyl)thio)benzamide] |  |  |  |  |  |  |  |  |  |  |  | activity against C. difficile ATCC BAA 1801 in words [1]: only moderate to no actvity
2 | CCc1c(Cl)c(O)c(Cl)c(O)c1C(=O)O[C@H]1[C@H](O)[C@H](OC)[C@H](OC/C2=C\C=C\C[C@H](O)/C(C)=C/[C@H](CC)[C@@H](O[C@@H]3OC(C)(C)[C@@H](OC(=O)C(C)C)[C@H](O)[C@@H]3O)/C(C)=C/C(C)=C/C[C@@H]([C@@H](C)O)OC2=O)O[C@@H]1C [Fidaxomicin] | > 64 | > 64 µg/mL | > 64 | > 64 µg/mL and > 60.5 µM | 0.015 (≈ 0.0142 µM) | > 64 µg/mL and > 60.5 µM |  |  |  |  |  | MIC [4]: 0.015 µg/mL (≈ 0.0142 µM); MIC [5]: 0.015 µg/mL (≈ 0.0142 µM)
3 | CNC(C)C1CCC(N)C(OC2C(N)CC(N)C(OC3OCC(C)(O)C(NC)C3O)C2O)O1 (stereo not shown) [Gentamicin] |  |  |  |  |  |  | 0.25 µg/mL and 0.52 µM | 0.25 µg/mL and 0.52 µM |  |  |  | 
4 | O=C(Nc1nnc(-c2cc(Cl)cc(Cl)c2)o1)c1ccc(SC(F)(F)F)cc1 [HSGN-218, N-(5-(3,5-Dichlorophenyl)-1,3,4-oxadiazol-2-yl)-4-((trifluoromethyl)thio)benzamide] | 16 (≈ 36.8 µM) | 16 µg/mL (≈ 36.8 µM) | 1 (≈ 2.3 µM) | 16 µg/mL (≈ 36.8 µM) | 0.015 (≈ 0.0345 µM) | 2 µg/mL (≈ 4.61 µM) | 4 µg/mL (≈ 9.21 µM) | > 16 µg/mL | 0.06 (≈ 0.138 µM) | 0.125 (≈ 0.288 µM) |  | isolation of resistant mutants (C. difficile ATCC 43255 [12]; 15 × MIC and 20 × MIC): No resistant mutants were isolated; Frequency of mutation (C. difficile ATCC 43255 [12]; [20]): <1.1× 10^−9; Frequency of mutation (C. difficile ATCC 43255 [12]; [21]): <1.1× 10^−9; MIC [13]: 0.03 µg/mL (≈ 0.0691 µM); concentration highly tolerable to Caco-2 cells [14]: higher than 64 μg/mL; Notes (permeability class) (Caco-2 bilayers): Low Permeability; activity against E. coli BW25113 in words ([11]; wild-type strain): inactive; MIC (Lactobacillus strains): 16 µg/mL (≈ 36.8 µM); MIC [15]: 0.003 µg/mL (≈ 0.00691 µM); MIC (Bacteroides spp): 1 µg/mL to 2 µg/mL and 2.3 µM to 4.6 µM; MIC (VRE clinical isolates): 0.06 µg/mL to 0.125 µg/mL and 0.14 µM to 0.29 µM
5 | CC(=O)NC[C@H]1CN(c2ccc(N3CCOCC3)c(F)c2)C(=O)O1 [Linezolid] |  |  |  |  |  |  | 16 µg/mL (≈ 47.4 µM) | > 64 µg/mL and > 190 µM | 1 (≈ 2.96 µM) | 1 (≈ 2.96 µM) |  | 
6 | Cc1ncc([N+](=O)[O-])n1CCO [Metronidazole] | > 64 | > 64 µg/mL | 2 (≈ 11.7 µM) | > 64 µg/mL and > 374 µM | 0.25 (≈ 1.46 µM) | ≤ 1 µg/mL |  |  | > 64 | > 64 | 0.25 (≈ 1.46 µM) | MIC [4]: 0.125 µg/mL (≈ 0.73 µM); MIC [13]: 0.25 µg/mL (≈ 1.46 µM); MIC [5]: 0.25 µg/mL (≈ 1.46 µM); MIC [16]: 0.125 µg/mL (≈ 0.73 µM); MIC [17]: 0.25 µg/mL (≈ 1.46 µM); MIC [15]: 0.125 µg/mL (≈ 0.73 µM); bioavailable (absorption from the intestinal tract) [18]: 100%; treatment failure [19]: 22%
7 | CC(C)NCC(O)COc1cccc2ccccc12 (stereo not shown) [Propranolol] |  |  |  |  |  |  |  |  |  |  |  | Notes (permeability class) (Caco-2 bilayers): High Permeability Control
8 | CNC(=C[N+](=O)[O-])NCCSCc1ccc(CN(C)C)o1 [Ranitidine] |  |  |  |  |  |  |  |  |  |  |  | Notes (permeability class) (Caco-2 bilayers): Low Permeability Control
9 | CN[C@H](CC(C)C)C(=O)N[C@H]1C(=O)N[C@@H](CC(N)=O)C(=O)N[C@H]2C(=O)N[C@H]3C(=O)N[C@H](C(=O)N[C@H](C(=O)O)c4cc(O)cc(O)c4-c4cc3ccc4O)[C@H](O)c3ccc(c(Cl)c3)Oc3cc2cc(c3O[C@@H]2O[C@H](CO)[C@@H](O)[C@H](O)[C@H]2O[C@H]2C[C@](C)(N)[C@H](O)[C@H](C)O2)Oc2ccc(cc2Cl)[C@H]1O [Vancomycin] | 2 (≈ 1.38 µM) | ≤ 1 µg/mL and ≤ 0.7 µM | 32 (≈ 22.1 µM) | 2 µg/mL (≈ 1.38 µM) | 1 (≈ 0.69 µM) | 64 µg/mL (≈ 44.2 µM) | > 64 µg/mL | > 64 µg/mL | > 64 | 32 (≈ 22.1 µM) |  | Frequency of mutation (C. difficile ATCC 43255 [12]; 15 × MIC and 20 × MIC): < 1.1× 10^−9; isolation of resistant mutants (C. difficile ATCC 43255 [12]; 15 × MIC and 20 × MIC): no resistant mutants were isolated; Frequency of mutation (C. difficile ATCC 43255 [12]; [20]): <1.1× 10^−9; Frequency of mutation (C. difficile ATCC 43255 [12]; [21]): <1.1× 10^−9; MIC [4]: 0.5 µg/mL (≈ 0.345 µM); MIC [13]: 0.25 µg/mL (≈ 0.173 µM); MIC [5]: 1 µg/mL (≈ 0.69 µM); MIC [16]: 0.5 µg/mL (≈ 0.345 µM); MIC [1]: 1 µg/mL (≈ 0.69 µM); MIC (Lactobacillus strains): 1 µg/mL to 2 µg/mL and 0.7 µM to 1.4 µM; MIC [17]: 1 µg/mL (≈ 0.69 µM); MIC [15]: 1 µg/mL (≈ 0.69 µM); MIC (Bacteroides spp): 32 µg/mL to 64 µg/mL and 22.1 µM to 44.2 µM; treatment failure [19]: 14%
10 | O=C(Nc1nnc(-c2ccccc2)o1)c1ccc(SC(F)(F)F)cc1 [compound 1, N-(5-Phenyl-1,3,4-oxadiazol-2-yl)-4-((trifluoromethyl)thio)benzamide] |  |  |  |  |  |  |  |  |  |  | 2 (≈ 5.47 µM) | 
11 | O=C(Nc1nnc(-c2ccccc2F)o1)c1ccc(SC(F)(F)F)cc1 [compound 2, N-(5-(2-Fluorophenyl)-1,3,4-oxadiazol-2-yl)-4-((trifluoromethyl)thio)benzamide] |  |  |  |  |  |  |  |  |  |  | 4 (≈ 10.4 µM) | 
12 | O=C(Nc1nnc(-c2ccccc2Cl)o1)c1ccc(SC(F)(F)F)cc1 [compound 3, N-(5-(2-Chlorophenyl)-1,3,4-oxadiazol-2-yl)-4-((trifluoromethyl)thio)benzamide] |  |  |  |  |  |  |  |  |  |  | 4 (≈ 10 µM) | 

Source: article PMC9064041 (Journal of medicinal chemistry, 2020)
